Source: article PMC9962735, “Synthesis and Cytotoxic Activity of the Derivatives of N-(Purin-6-yl)aminopolymethylene Carboxylic Acids and Related Compounds” (Molecules, 2023)

What was measured:
[1] = system: A549, SK-BR-3, SNU-1, Jurkat, WI-38 cell lines; assay: MTT cytotoxicity assay, cell line panel (result in words); type: cell-based, human; settings: 72 h
Text: (§1) The cytotoxicity of the test compounds was studied using the MTT assay against a number of cell lines: CT-26 murine colon carcinoma, 4T1 murine mammary carcinoma, MDA-MB-231 human breast adenocarcinoma, COLO201 human colorectal adenocarcinoma, HepG2 human hepatocellular carcinoma, A549 human non-small-cell lung carcinoma, SK-BR-3 human breast adenocarcinoma, SNU-1 human gastric carcinoma, Jurkat human acute T-lymphoblastic leukemia, and WI-38 human lung fibroblasts (normal cells). Doxorubicin (Dox) was used as a reference drug. Cells were incubated with test compounds for 72 h.
The cytotoxicity of compounds 2a–c, 6, 7, and 9 was also studied using the MTT assay against a number of tumor cell lines: A549, SK-BR-3, SNU-1, Jurkat, as well as normal fibroblasts WI-38 (Table 3).
(§2) Cells were seeded in flat-bottomed 96-well plates at 10,000 cells per well (for A549, SNU-1, WI-38, CT-26, MDA-MB-231, 4T1, and HepG2 cells) or 20,000 cells per well (for SK-BR-3, Jurkat, and COLO201 cells) and cultivated in complete culture mediums (for composition of each medium, see the Supplementary Materials, Table S1) in a CO2 incubator at 37 °C. At the first stage of this study, the test compounds dissolved in DMSO were added to the wells with cells at final concentrations from 1 × 10^–4 to 1 × 10^–10 mol/L (A549, SK-BR-3, SNU-1, Jurkat, and WI-38) or 1 × 10^–3 to 1 × 10^–8 mol/L (CT-26, MDA-MB-231, 4T1, COLO201, and HepG2); DMSO concentration in the wells was finally 1%. A complete cultural medium and DMSO were added to the control wells at the same concentration as in the experimental wells; 0.1% Triton X-100 solution (10 µL) was added to the corresponding wells as a non-specific positive control. After adding the test compounds, the cells were incubated for 72 h in an atmosphere containing 5% CO2. After that, the nutrient medium was removed from each well (in the case of SK-BR-3, Jurkat, and COLO201, plates were pre-centrifuged at 1500 rpm for 6 min). A solution of the commercial anticancer agent Doxorubicin (Dox, Sigma-Aldrich, St. Louis, MO, USA) in DMSO was used as a reference drug. Then, 150 µL of a complete medium with the MTT reagent (PanEco, Moscow, Russia) at a concentration of 0.5 mg/mL was added and incubated for 2 h. Formazan crystals were dissolved in DMSO (200 µL) and the absorbance in the wells was measured at 540 nm and a reference wavelength of 650 nm (Sunrise, Tecan, Groding, Austria). Experiments were performed in three parallel runs. Cell viability after incubation in the presence of test compounds was calculated in relation to cell viability in the control wells according to the Formula (1):Cell viability (%) = (Aexp/Ac) × 100,(1) where Aexp is the optical density of solutions in the wells containing test compounds; Ac is the optical density of solutions in control wells without test compounds. For detailed information on cell viability of various cell lines, see the Supplementary Materials, Figures S21–S26.
(§3) At the second stage of this study, in order to more accurately calculate the CC50 (the half maximal inhibitory concentration), the cytotoxic effect of test compounds was evaluated at concentrations close to CC50 found at the first stage. The study of the cytotoxic activity of each substance towards the cells of each line was carried out in triplicate; the mean value was used to calculate CC50. The CC50 values were determined by non-linear regression analysis using Graph-Pad Prism7.

[2] = MTT cytotoxicity assay, A549; type: cell-based, human; settings: human, read-out: SCI (selective cytotoxicity index)
Text: as §1, §2, §3

[3] = system: A549 human non-small-cell lung carcinoma; assay: MTT cytotoxicity assay, A549; type: cell-based; settings: Homo sapiens; for CC50: A549, 72 h, A549, 72 h incubation, MTT
Text: as §1, §2, §3

[4] = MTT cytotoxicity assay, SNU-1; type: cell-based, human; settings: human, read-out: SCI (selective cytotoxicity index)
Text: as §1, §2, §3

[5] = system: SNU-1 human gastric carcinoma; assay: MTT cytotoxicity assay, SNU-1; type: cell-based; settings: Homo sapiens; for CC50: SNU1, 72 h, SNU-1, 72 h incubation, MTT
Text: as §1, §2, §3

[6] = MTT cytotoxicity assay, Jurkat; type: cell-based, human; settings: human, read-out: SCI (selective cytotoxicity index)
Text: as §1, §2, §3

[7] = system: Jurkat human acute T-lymphoblastic leukemia; assay: MTT cytotoxicity assay, Jurkat; type: cell-based; settings: Homo sapiens, Jurkat; for CC50: 72 h, 72 h incubation, MTT
Text: as §1, §2, §3

[8] = MTT cytotoxicity assay, WI-38 normal cells; type: cell-based; settings: human, WI-38 lung fibroblasts (normal cells); for CC50 at 72 h: WI-38, 72 h incubation, MTT
Text: as §1, §2, §3

[9] = MTT cytotoxicity assay, SK-BR-3; type: cell-based, human; settings: human, read-out: SCI (selective cytotoxicity index)
Text: as §1, §2, §3

[10] = system: SK-BR-3 human breast adenocarcinoma; assay: MTT cytotoxicity assay, SK-BR-3; type: cell-based; settings: Homo sapiens; for CC50: SK-BR-3, 72 h, SK-BR-3, 72 h incubation, MTT
Text: as §1, §2, §3

[11] = system: herpes simplex virus type 1 (HSV-1), including acyclovir-resistant HSV-1 strain; set-up: method as in doi:10.1002/ejoc.201900727, doi:10.1515/pac-2019-1214, doi:10.1007/s10593-021-02929-z; settings: HSV-1 including acyclovir-resistant strain; cited from earlier work
[12] = system: MDA-MB-231 human breast adenocarcinoma; assay: MTT cytotoxicity assay, MDA-MB-231; type: cell-based; settings: Homo sapiens; for CC50: MDA-MB-231, 72 h incubation, MTT, n = 3
Text: as §1, §2, §3

[13] = MTT cytotoxicity assay, MDA-MB-231; type: cell-based, human; settings: human; CC50 of WI-38 divided by CC50 of MDA-MB-231; read-out: SCI (selective cytotoxicity index)
Text: as §1, §2, §3

[14] = system: COLO201 human colorectal adenocarcinoma; assay: MTT cytotoxicity assay, COLO201; type: cell-based; settings: Homo sapiens, COLO 201; for CC50: COLO201, 72 h incubation, MTT, n = 3
Text: as §1, §2, §3

[15] = MTT cytotoxicity assay, COLO201; type: cell-based, human; settings: human; CC50 of WI-38 divided by CC50 of COLO201; read-out: SCI (selective cytotoxicity index)
Text: as §1, §2, §3

[16] = MTT cytotoxicity assay, HepG2; type: cell-based, human; settings: human; CC50 of WI-38 divided by CC50 of HepG2; read-out: SCI (selective cytotoxicity index)
Text: as §1, §2, §3

[17] = system: HepG2 human hepatocellular carcinoma; assay: MTT cytotoxicity assay, HepG2; type: cell-based; settings: Homo sapiens; for CC50: HepG2, 72 h incubation, MTT, n = 3
Text: as §1, §2, §3

[18] = system: 4T1 murine mammary carcinoma; assay: MTT cytotoxicity assay, 4T1; type: cell-based; settings: Mus musculus; for CC50: 4T1, 72 h incubation, MTT, n = 3
Text: as §1, §2, §3

[19] = MTT cytotoxicity assay, 4T1; type: cell-based, murine; settings: mouse (4T1) and human (WI-38); CC50 of WI-38 divided by CC50 of 4T1; read-out: SCI (selective cytotoxicity index)
Text: as §1, §2, §3

[20] = MTT cytotoxicity assay, CT-26; type: cell-based, murine; settings: mouse (CT-26) and human (WI-38); CC50 of WI-38 divided by CC50 of CT-26; read-out: SCI (selective cytotoxicity index)
Text: as §1, §2, §3

[21] = system: CT-26 murine colon carcinoma; assay: MTT cytotoxicity assay, CT-26; type: cell-based; settings: Mus musculus, CT26; for CC50: CT-26, 72 h incubation, MTT, n = 3
Text: as §1, §2, §3

[22] = Solubility in aqueous media; type: physicochemical; settings: result in words
[23] = CC50 of WI-38 divided by CC50 of A549 (Table 3)
[24] = CC50 of WI-38 divided by CC50 of SNU-1 (Table 3)
[25] = CC50 of WI-38 divided by CC50 of Jurkat (Table 3)
[26] = CC50 of WI-38 divided by CC50 of SK-BR-3 (Table 3)
[27] = CC50 of WI-38 divided by CC50 of A549 (Table 1)
[28] = CC50 of WI-38 divided by CC50 of SNU-1 (Table 1)
[29] = CC50 of WI-38 divided by CC50 of Jurkat (Table 1)
[30] = CC50 of WI-38 divided by CC50 of SK-BR-3 (Table 1)

Structure (SMILES) | cytotoxic activity (in words) [1] | selectivity ratio at 72 h [2, 23] | CC50 ([3]; n = 3 (Table 3)) [µM] | selectivity ratio at 72 h [4, 24] | CC50 ([5]; n = 3 (Table 3)) [µM] | selectivity ratio at 72 h [6, 25] | CC50 ([7]; n = 3 (Table 3)) [µM] | CC50 at 72 h ([8]; n = 3 (Table 3)) [µM] | selectivity ratio at 72 h [9, 26] | CC50 ([10]; n = 3 (Table 3)) [µM] | selectivity ratio at 72 h [2, 27] | CC50 ([3]; n = 3 (Table 1)) [µM] | selectivity ratio at 72 h [4, 28] | CC50 ([5]; n = 3 (Table 1)) [µM] | selectivity ratio at 72 h [6, 29] | CC50 ([7]; n = 3 (Table 1)) [µM] | CC50 at 72 h ([8]; n = 3) [µM] | CC50 [12] [µM] | selectivity ratio at 72 h [13] | CC50 [14] [nM] | also measured
CC1COc2c(ccc(F)c2F)N1C(=O)CCCCCNc1ncnc2[nH]cnc12 (stereo not shown) [Compound 1b] | showed cytotoxic activity | 1.8 | 53 | 4.9 | 20 | 1.5 | 67 | 98 | ≤ 0.98 | > 100 | – | – | – | – | – | – | – | – | – | – | antiviral activity in vitro against HSV-1 [11]: high antiviral activity
CC1COc2c(ccc(F)c2F)N1C(=O)CCCCCCCCCCCCCCNc1ncnc2[nH]cnc12 (stereo not shown) [Compound 1f] | – | – | – | – | – | – | – | – | – | – | 0.58 | 60 | 5.8 | 6 | 1.1 | 32 | 35 | 28 | 1.4 | 1300 | selectivity ratio at 72 h [15]: 27; selectivity ratio at 72 h [9, 30]: 0.35; CC50 ([10]; n = 3 (Table 1)): 99 µM; selectivity ratio at 72 h [16]: 3.6; CC50 [17]: 9.7 µM; CC50 [18]: 2300 nM; selectivity ratio at 72 h [19]: 15; selectivity ratio at 72 h [20]: 12; CC50 [21]: 3 µM
CC1COc2c(ccc(F)c2F)N1C(=O)CCCCCCCCCCCNc1ncnc2[nH]cnc12 (stereo not shown) [Compound 1e] | – | – | – | – | – | – | – | – | – | – | 0.95 | 75 | 12 | 6 | 18 | 4 | 71 | 12 | 5.9 | 3500 | viability at 100 µM ([3]; A549, 1 × 10^–4 M, mean ± SD (n = 3)): 6%; viability at 100 µM ([5]; SNU1, SNU-1, 1 × 10^–4 M, mean ± SD (n = 3), read-out: Cell viability): 5 ± 1%; viability at 100 µM ([7]; 1 × 10^–4 M, mean ± SD (n = 3), read-out: Cell viability): 10 ± 4%; viability at 72 h ([8]; WI-38, 1 × 10^–4 M, mean ± SD (n = 3), read-out: Cell viability): 22 ± 7%; viability at 100 µM ([12]; MDA-MB-231, 1 × 10^–4 M, mean ± SD (n = 3), read-out: Cell viability): 7 ± 5%; viability at 100 µM ([14]; COLO201, 1 × 10^–4 M, mean ± SD (n = 3), read-out: Cell viability): 2 ± 1%; selectivity ratio at 72 h [15]: 20; selectivity ratio at 72 h [9, 30]: 0.83; CC50 ([10]; n = 3 (Table 1)): 85 µM; viability at 100 µM ([10]; SK-BR-3, 1 × 10^–4 M, mean ± SD (n = 3), read-out: Cell viability): 9 ± 2%; selectivity ratio at 72 h [16]: 14; viability at 100 µM ([17]; HepG2, 1 × 10^–4 M, mean ± SD (n = 3), read-out: Cell viability): 2 ± 1%; CC50 [17]: 5.2 µM; viability at 100 µM ([18]; 4T1, 1 × 10^–4 M, mean ± SD (n = 3), read-out: Cell viability): 2 ± 2%; CC50 [18]: 490 nM; selectivity ratio at 72 h [19]: 145; selectivity ratio at 72 h [20]: 21; viability at 100 µM ([21]; CT-26, 1 × 10^–4 M, mean ± SD (n = 3), read-out: Cell viability): 3 ± 2%; CC50 [21]: 3.4 µM
CC1COc2c(ccc(F)c2F)N1C(=O)CCCCCCCCCCNc1ncnc2c1ncn2COCCO (stereo not shown) [Compound 7, 4-{11-[9-(2-Hydroxyethoxy)methylpurin-6-yl]aminoundecanoyl}-7,8-difluoro-3,4-dihydro-3-methyl-2H-[1,4]benzoxazine] | approximately the same cytotoxicity as the most active compound 1d | 1.5 | 9.4 | 3.8 | 3.7 | 1.9 | 7.3 | 14 | 0.33 | 42 | – | – | – | – | – | – | – | – | – | – | solubility in aqueous media [22]: not possible to achieve a significant increase in the solubility
